Series [1] in a line: Fluorescence emission spectra and quantum yield relative to HITC. The series is classed as physicochemical. To be noted: for QY (fluor): given as fraction in synthesis example. As for the experimental part:
Fluorescence spectra for the dyes were determined at RT on a Varian Cary Eclipse spectrofluorometer in a standard 1-cm quartz cell. The spectra were corrected. All concentrations of the fluorophores were chosen to be between 0.2 and 1.0 μM.
For the determination of the quantum yields (QY), the integrated relative intensities of the dyes or dye-protein conjugates, were measured against HITC as the reference. All absorbances at excitation wavelength (λexc) were in the range of 0.04-0.08 (when measured in a 1-cm cell).
The QY of each sample was independently measured 3-4 times and the average value was calculated.

Series [2] can be described thus: Absorption spectra and extinction coefficients of dyes. The format is physicochemical. To be noted: for Extinction coefficient ε at λmax (abs): synthesis example, no unit. As for the experimental part:
Absorption spectra were measured at RT on a Perking Elmer Lambda 35 UV/Vis spectrophotometer. […] The stock solution was diluted (1:2000) and the absorbance was measured in a 5-cm standard quartz cell. All dye concentrations were in the range of 1.1 to 2.0×10^−7 M. The extinction coefficients were calculated according to Lambert-Beer's law.

A short description of series [3]: Singlet oxygen quantum yield, DPBF scavenger method in ethanol. To be noted: measured in ethanol, 650 nm laser, ICG reference. The format is physicochemical.
Procedure: The modified relative photochemical method of Spiller W. et al. (J. Porphyrins Phthalocyanines, 1998, V. 2, 145-158) utilizing 1,3-diphenylisobenzofuran (DPBF) as a chemical scavenger was used to determine the photosensitiser's singlet oxygen quantum yields (ΦΔ) in ethanol solutions.
Ethanolic solutions containing DPBF (10 μM) and sensitizers with absorbance (optical density) in a range between 0.09 and 0.10 at 650 nm (measured in a standard 1-cm quartz cell) were prepared. Samples were saturated with oxygen by bubbling. Next, 3 mL of the solution were placed in a 1-cm cell equipped with a stirring bar and a 10 mW, 650 nm diode laser was hermetically attached to the top of cuvette so as to avoid solvent evaporation and to provide a light beam direction from top to bottom of the cuvette. The solution in the cuvette was irradiated with the diode laser under continuous stirring for a certain time. DPBF consumption was determined by monitoring DPBF bleaching over irradiation time using absorption spectroscopy at 411 nm (extinction coefficient 22,000 M^−1 cm^−1). At least six absorption spectra were obtained for each solution at different irradiation times until the DPBF absorbance reduced at least to the 10% of the initial absorbance.
The decrease of DPBF absorbance at 411 nm versus irradiation time was plotted for each photosensitizer and the DPBF degradation rate constant (K) characterizing the reaction rate of singlet oxygen with DPBF in presence of a sensitizer was calculated.
In series [4] the test system is bovine erythrocytes. Put plainly: Phototoxicity (glow lamp) and dark toxicity by hemolysis of bovine erythrocytes. The format is cell-based. To be noted: Dark, 50 μM. As for the experimental part: (§1) Bovine erythrocytes were isolated from blood plasma stored with sodium citrate. 1 mL of bovine blood was treated at centrifuge (3,000 rpm) for 10 min to precipitate erythrocytes. The supernatant was decanted, 2 mL of physiological solution were added, treated and erythrocytes were precipitated with centrifuge. The washing procedure was repeated for 3 times and the precipitated erythrocytes were collected. […] Cells were dye-incubated for 45 minutes at 37° C. in the dark. Then the examined suspensions of cells (erythrocytes) were placed at a distance of 30-cm from a 250 W glow red-lamp equipped with a water-based heat filter and irradiated with occasional stirring. After irradiation, cells were stored at 4° C. for 15 hours. […] The hemolysis level (percentage of hemolyzed cells) was determined as the ratio of absorbances of the supernatant and a solution of 100% hemolysed cells. The 100% hemolysis was taken as the value obtained when the given number of erythrocytes were suspended in distilled water.

Assay in series [5]: as above
The format is cell-based. Conditions: bovine, bovine erythrocytes, Glow Lamp. As for the experimental part: as §1

Several values for one entry are separate records, joined by “and”; a condition that tells them apart may be missing. Equal values may be shown once.

With `CN1\C(=C/C=C/C=C/C=C/C2=[N+](C)c3cc(I)c(I)c(I)c3C2(C)CCCCCC(=O)O)C(C)(CCCCCC(=O)O)c2c1cc(I)c(I)c2I.[I-]` (stereo not drawn) [I-93], the Emission max. in series [1] (Methanol) is on record as 783 nm; in series [1] (Water), “n.f”. Also, the Fluorescence quantum yield in series [1] (Methanol) amounted to 47%. Moreover, the figures for the Absorption max. in series [2] (Methanol) and in series [2] (Water) were 755 nm and 783 nm, respectively.

On to “1-(5-carboxypentyl)-2-[7-(4,6-diiodo-1,3,3-trimethyl-3H-2-indoliumyl)-2,4,6-heptatrienylidene]-3-methyl-3-(4-sulfobutyl)-5-indolinesulfonate [I-72]”, for which, in series [3], the “Singlet oxygen generation quantum yield ΦΔ” value is reported as 12%. Besides, the Emission max. was found to be 780 nm in series [1] (Methanol) and 777 nm in series [1] (Water). Besides, the results for the Fluorescence quantum yield in series [1] (Methanol) and in series [1] (Water) were 41% and 21%, respectively. The figures for the “QY (fluor)” value in series [1] (methanol) and in series [1] (water) were 0.41 and 0.21, respectively. Further, the Absorption max. in series [2] (Methanol) and in series [2] (Water) was 750 nm each time. Besides, the “Extinction Coefficient” value in series [2] (Water) is recorded as 270,000 M^−1cm^−1. Also, the “Extinction coefficient ε at λmax (abs)” value in series [2] (water) was 270,000.

In series [1] (Methanol), `CN1/C(=C\C=C2/CCCC(/C=C/C3=[N+](C)c4cc(I)c(I)c(I)c4C3(C)C)=C2Cl)C(C)(C)c2c1cc(I)c(I)c2I.[I-]` [I-96] registered an Emission max. of 808 nm and a Fluorescence quantum yield of 21%. In series [2] (Methanol), this compound registered an Absorption max. of 787 nm.

Turning to “3-(5-carboxypentyl)-2-[7-(4,6-diiodo-1,3,3-trimethyl-2,3-dihydro-1H-2-indolyliden)-1,3,5-heptatrienyl]-1,1-dimethyl-6-sulfo-8-(1H-benzo[e]indolium)sulfo-nate [I-74]”, in series [1] (Methanol), the Emission max. was 793 nm and the Fluorescence quantum yield is reported as 22%. Besides, the “QY (fluor)” value in series [1] (methanol) worked out at 0.22. The Absorption max. in series [2] (Methanol) is reported as 760 nm.

In series [1] (Methanol), `CC1(CCCCCC(=O)N2CC[N+]3(CC2)CC[N+]2(CCNCC2)CC3)C(/C=C/C=C/C=C/C=C2\N(CCCS(=O)(=O)[O-])c3cc(I)c(I)c(I)c3C2(C)CCCCCC(=O)N2CC[N+]3(CC2)CC[N+]2(CCNCC2)CC3)=[N+](CCCS(=O)(=O)[O-])c2cc(I)c(I)c(I)c21.[Cl-].[Cl-].[Cl-]` (stereo not drawn) [I-91] gave an Emission max. of 795 nm and a Fluorescence quantum yield of 26%. The Absorption max. in series [2] (Methanol) was 766 nm.

On to `C[N+]1=C(C=CC=CC=CC=C2N(CCCCS(=O)(=O)[O-])c3ccc(S(=O)(=O)O)cc3C2(C)C)C(CCCCCC(=O)O)c2c(I)cc(I)cc21` (stereo not drawn) [I-83, 4-(2-7-[3-(5-carboxypentyl)-4,6-diiodo-1-methyl-3H-2-indoliumyl]-2,4,6-heptatrienylidene-3,3-dimethyl-5-sulfo-2,3-dihydro-1H-1-indolyl)-1-butanesulfonate], for which the Emission max. amounted to 776 nm in series [1] (Conjugates with IgG (antibody)), 779 nm in series [1] (Methanol) and 776 nm in series [1] (Water). Moreover, the results for the Fluorescence quantum yield in series [1] (Methanol) and in series [1] (Water) were 43% and 22%, respectively. In addition, the figures for the Absorption max. in series [2] (Conjugates with IgG (antibody)), in series [2] (Methanol) and in series [2] (Water) were 755 nm, 750 nm and 748 nm, respectively.

As for `CN1\C(=C/C=C/C=C/C=C/C2=[N+](C)c3cc(I)cc(I)c3C2(C)CCCCCC(=O)O)C(C)(CCCCCC(=O)O)c2c(I)cc(I)cc21.[I-]` (stereo not drawn) [I-79, 3-(5-carboxypentyl)-2-7-[3-(5-carboxypentyl)-4,6-diiodo-1,3-dimethyl-2,3-dihydro-1H-2-indolyliden]-1,3,5-heptatrienyl-4,6-diiodo-1,3-dimethyl-3H-indolium iodide], in series [4], the Hemolysis amounted to 4%. In series [5] (0.5 μM, exposure 60 min), this compound registered a hemolysis at 60 min, 0.5 µM of 75%. In series [5] (1 μM, exposure 30 min), this compound gave a hemolysis at 30 min, 1 µM of 80%. The compound also came in with an Absorption max. in series [2] (Chloroform) of 763 nm.

In series [1] (Methanol), `CC(C)(C)C1=CC(=C/C=C/C=C/C=C/C2=[N+](CCCS(=O)(=O)[O-])c3ccc(I)cc3C2(C)CCCCCC(=O)O)C=C(C(C)(C)C)O1` (stereo not drawn) [I-68] yielded an Emission max. of 826 nm and a Fluorescence quantum yield of 6%. In series [2] (Methanol), this compound returned an Absorption max. of 794 nm.

With “1-(5-carboxypentyl)-2-[7-(4,6-diiodo-1,3,3-trimethyl-3H-2-indoliumyl)-2,4,6-heptatrienylidene]-3,3-dimethyl-5-indolinesulfonate [I-73]”, in series [1] (Methanol), the Emission max. turned out to be 779 nm and the Fluorescence quantum yield is reported as 41%. In addition, in series [1] (methanol), the “QY (fluor)” value is reported as 0.41. Besides, the Absorption max. in series [2] (Methanol) is reported as 748 nm.

On to `CC1(CCCCCC(=O)O)C(/C=C/C=C/C=C/C=C2\N(CCCCS(=O)(=O)O)c3ccc(S(=O)(=O)[O-])cc3C2(C)CCCCS(=O)(=O)O)=[N+](CCCS(=O)(=O)O)c2cc(I)c(I)c(I)c21` (stereo not drawn) [I-84, 4-[2-7-[3-(5-carboxypentyl)-4,5,6-triiodo-3-methyl-1-(3-sulfopro-pyl)-2,3-dihydro-1H-2-indolyliden]-1,3,5-heptatrienyl-3-methyl-5-sulfo-3-(4-sulfobutyl)-3H-1-indoliumyl]-1-butanesulfonate], for which the Emission max. in series [1] (Conjugates with IgG (antibody)), in series [1] (Phosphate buffer (pH 7.4)) and in series [1] (Water) was 787 nm throughout. Moreover, in series [1] (Water (PB, pH 7.4)), the Fluorescence quantum yield is on record as 20%. Further, in series [1] (water), the “QY (fluor)” value is 0.20. Also, the Absorption max. was 762 nm in series [2] (Conjugates with IgG (antibody)), 758 nm in series [2] (Phosphate buffer (pH 7.4)) and 758 nm in series [2] (Water). Besides, in series [2] (water), the “Extinction coefficient ε at λmax (abs)” value is given as 270,000.

In series [1] (Methanol), `CC1(CCCCCC(=O)NCCS(=O)(=O)O)C(/C=C/C=C/C=C/C=C2\N(CCCS(=O)(=O)O)c3cc(I)c(I)c(I)c3C2(C)CCCCCC(=O)NCCS(=O)(=O)O)=[N+](CCCS(=O)(=O)[O-])c2cc(I)c(I)c(I)c21` (stereo not drawn) [I-92] showed an Emission max. of 794 nm and a Fluorescence quantum yield of 39%. In addition, the Absorption max. in series [2] (Methanol) is 764 nm.

In series [1] (Methanol), `CN1/C(=C\C=C2/CCCC(/C=C/C3=[N+](C)c4ccc(I)cc4C3(C)C)=C2Cl)C(C)(C)c2cc(I)ccc21.[I-]` [I-56] yielded an Emission max. of 806 nm and a Fluorescence quantum yield of 16%. The Absorption max. in series [2] (Methanol) stood at 784 nm.

Regarding `C[N+]1=C(C=CC=CC=CC=C2N(CCCCCC(=O)NCCOCCOCCOCCC(=O)O)c3ccc(S(=O)(=O)[O-])cc3C2(C)CCCCS(=O)(=O)O)C(C)(C)c2c(I)cc(I)cc21` (stereo not drawn) [I-89, 1-[5-(2-2-[2-(2-carboxyethoxy)ethoxy]ethoxyethylcarbamoyl)-pentyl]-2-[7-(4,6-diiodo-1,3,3-trimethyl-3H-2-indoliumyl)-2,4,6-heptatrienylidene]-3-methyl-3-(4-sulfobutyl)-5-indolinesulfonate], the “Singlet oxygen generation quantum yield ΦΔ” value in series [3] came out at 13%. In series [1] (Water), this compound came in with an Emission max. of 777 nm and a Fluorescence quantum yield of 21.5%. For the same compound, in series [2] (Water), the Absorption max. was 750 nm and the “Extinction Coefficient” value is given as 270,000 M^−1cm^−1.

Turning to `CN1\C(=C/C=C/C=C/C=C/C2=[N+](C)c3cc(Br)c(Br)c(Br)c3C2(C)C)C(C)(C)c2c1cc(Br)c(Br)c2Br.[I-]` [I-88, 4,5,6-tribromo-1,3,3-trimethyl-2-[7-(4,5,6-tribromo-1,3,3-trimethyl-2,3-dihydro-1H-2-indolyliden)-1,3,5-heptatrienyl]-3H-indolium iodide], the “Singlet oxygen generation quantum yield ΦΔ” value in series [3] is given as 11%. In series [1] (Methanol), this compound gave an Emission max. of 778 nm and a Fluorescence quantum yield of 50%. In addition, the “QY (fluor)” value in series [1] (methanol) was determined as 0.50. Also, in series [2] (Methanol), the Absorption max. is given as 748 nm and the “Extinction Coefficient” value was 240,000 M^−1cm^−1. Besides, the “Extinction coefficient ε at λmax (abs)” value in series [2] (methanol) is listed as 240,000.

For the compound `CN(C)c1ccc(SC2=C(/C=C/C3=[N+](C)c4ccc(I)cc4C3(C)C)CCC/C2=C\C=C2/N(C)c3ccc(I)cc3C2(C)C)cc1.[I-]` [I-61], in series [1] (Methanol), the Emission max. was 812 nm and the Fluorescence quantum yield was 14%. Further, the Absorption max. in series [2] (Methanol) was 792 nm.

In the case of `CN1\C(=C/C=C/C=C/C=C/C2=[N+](C)c3cc(I)c(I)c(I)c3C2(C)CCCCCC(=O)N2CC[N+]3(CC2)CC[N+]2(CCNCC2)CC3)C(C)(CCCCCC(=O)N2CC[N+]3(CC2)CC[N+]2(CCNCC2)CC3)c2c1cc(I)c(I)c2I.[Cl-].[Cl-].[Cl-].[Cl-].[Cl-]` (stereo not drawn) [I-94], the Emission max. was found to be 788 nm in series [1] (Methanol) and 782 nm in series [1] (Water). The Fluorescence quantum yield in series [1] (Methanol) was found to be 38%; in series [1] (Water), 1.8%. Besides, the Absorption max. in series [2] (Methanol) was 759 nm; in series [2] (Water), 695 nm and 756 nm.

The values are drawn from US9572881B2, “Halogenated compounds for photodynamic therapy” (Nanoquantum Sciences, Inc., priority 2012, dated 2017).
